Reference: ChEMBL document CHEMBL1157539, “Thousands of chemical starting points for antimalarial lead identification” (Nature, 2010)

tested on: Plasmodium falciparum; experiment: GSK_TCMDC: Inhibition of Plasmodium falciparum 3D7 in whole erythrocytes, using parasite LDH activity as an index of growth.; type: functional, organism-based; conditions: Plasmodium falciparum, 3D7

Compound | XC50 [nM]
CCN(CC)CCN(Cc1ccc(-c2ccc(C(F)(F)F)cc2)cc1)C(=O)Cn1c(CCc2ccc(F)c(F)c2F)nc(=O)c2ccccc21 | 795
CCNC(C)(C)CN(Cc1ccc(-c2ccc(C(F)(F)F)cc2)cc1)C(=O)Cn1c(CCc2cccc(F)c2F)nc(=O)c2ccccc21 | 813
COc1c(C2CCN(CCCCNC(=O)c3cc(-c4ccc(C#N)cc4)n[nH]3)CC2)ccc2c1CCCC2 | 1160
CCC(C)c1ccc(O)c(NC(=O)c2cncc(Br)c2)c1 (centres undefined) | 804
CCOc1ccc(N(CC)S(=O)(=O)c2cc(Br)cc3c2N(C(=O)C2CC2)CC3)cc1 | 134
Cc1cc(-c2ccc(CNCc3ccsc3)cc2)ccc1S(=O)(=O)NCCN1CCCC1 | 725
CN(C)CCN(C)Cc1nc(-c2ccc3c(Nc4ccc(Oc5ccccc5)cc4)ccnc3c2)cs1 | 212
CCN(CCCN1CCCCC1)c1cc(C)nc(Nc2ccc3c(c2)CCC3)n1 | 394
Cc1ccc(NC(=O)Nc2ccc(Cl)cc2)cc1-c1ccc(C(=O)Nc2ccncc2)cc1 | 534
Cc1ccc(NC(=O)c2ccc3ncccc3c2)cc1OC1CCN(Cc2ccc(F)cc2)C1 (centres undefined) | 1360
CCN(CC)S(=O)(=O)c1ccc(C=CC(=O)Nc2cc(Cl)ccc2N2CCOCC2)cc1 | 920
CN1CCN(CCNc2c3ccccc3nc3c2ccc2ccccc23)CC1 | 606
CC(C)NCc1ccc(-c2cccc(-c3nc4cc(F)ccc4[nH]3)c2)cc1 | 405
CCOc1ccc(NC(C)=O)c(O)c1 | 843
Cc1ccc2c(-c3ccc([N+](=O)[O-])o3)cc(C)nc2c1 | 43.7
Cc1ccc2[nH]c(C)c(Br)c(=O)c2c1 | 812
CC(C)CCN1CCCN(Cc2cccc(NC(=O)c3ccc(Cl)c(Cl)c3)c2)CC1 | 1020
CC(Cc1ccc(SC(C)(C)C)cc1)NCC(O)c1cccc(Cl)c1 (centres undefined) | 317
O=[N+]([O-])c1ccc2c(-c3ccccc3)c(-c3ccccc3)n(O)c2c1 | 989
Oc1ccc2[nH]c(-c3ccc(F)cc3F)nc2c1CN1CCC(O)(c2ccccc2)CC1 | 839
O=C(/C=C/c1ccc(Cl)c(Cl)c1)NCCCCCN1CCC(NC(=O)c2ccc3ccccc3c2)CC1 | 1020
CCc1cccc(NC(=O)c2ccc(CN3CCCN(CC4CCCCC4)CC3)cc2)c1 | 402
O=C(Nc1ccc(-c2cccc(-c3nc4cc(F)ccc4[nH]3)c2)cc1)Nc1ccsc1 | 693
O=C(Cc1ccc(NC(=O)c2ccc(O)c(-c3cccc([N+](=O)[O-])c3)c2)cc1)NCCN1CCCCC1 | 895
COc1cc(COc2c(C)nc(N)nc2N)cc(OC)c1OC | 332

Compound | XC50 [nM]
COc1cc(CCON2C(N)=NC(N)=NC2(C)C)cc(OC)c1OC | 49.3
Cc1ccc2nc(N/C(N)=N/C(=O)NC3CCCCC3)nc(C)c2c1 | 624
CNC(=O)NC1=NC(C)(C)N(OCCCOc2cc(Cl)c(Cl)cc2Cl)C(N)=N1 | 935
Cc1cc(C(F)(F)F)n2nc(C(=O)N(Cc3cncn3Cc3ccccc3F)CC3CC3)cc2n1 | 956
CC(=O)c1c(Cc2cccc(C(F)(F)F)c2)c[nH]c1C | 346
COc1ccccc1Nc1nc(C)cc(NCc2ccc(-n3ccnc3)cc2)n1 | 1050
Cc1ccc(Nc2nc(-c3ccccn3)cs2)nc1 | 752
CCN(c1ccccc1)S(=O)(=O)c1ccc(NC(=O)c2cc(-c3cc(C)ccc3O)n[nH]2)cc1 | 767
NC1CCCN(Cc2cccc(-c3ccc(-c4nc5ccccc5[nH]4)cc3)c2)C1 (centres undefined) | 722
CC(C)(C)c1ccc2oc(=O)n(C3CCN(C(=O)c4ccc([N+](=O)[O-])o4)CC3)c2c1 | 816
FC(F)(F)c1ccc2[nH]c(-c3ccc(-c4ccc(CNCc5ccccc5)cc4)cc3)nc2c1 | 143
Cc1[nH]c(-c2ccc(F)cc2)cc1C(=O)NC1CCN(Cc2ccccc2)CC1 | 1130
CCCn1c(Sc2ccc(C#N)c([N+](=O)[O-])c2)nnc1-c1cc(OC)cc(OC)c1 | 718
COc1cc2nc(N3CCC(C(N)=O)CC3)nc(NCc3ccccc3)c2cc1OC | 887
COc1cc2nc(Nc3ccc(C)cc3)nc(Nc3ccc(C)cc3)c2cc1OC | 139
CCc1ccc(CN2CCC(CN(c3ccc(N4CCOCC4)c(F)c3)S(=O)(=O)c3ccc(C(C)(C)CC)cc3)CC2)cc1 | 706
CCCCCCNc1cc(C)nc(NC(=N)Nc2cccc(C(F)(F)F)c2)n1 | 739
CC(=O)Nc1nc(C(=O)Nc2ccc(-c3ccc(-c4nc5cccc(C)c5[nH]4)cc3)cc2)cs1 | 182
O=C(/C=C/c1ccc(I)cc1)NCCCCCN1CCC(c2c[nH]c3ccc(O)cc23)CC1 | 773
N=C(N)NN=Cc1c2ccc(Cl)cc2c(Cl)c2ccc(Cl)cc12 | 958
COc1ccc2nc(C)cc(NCc3cccc4ccccc34)c2c1 | 217
C[C@H](Cc1ccc(OCCCCCCOc2ccccc2)cc1)NC[C@H](O)c1cccc(Cl)c1 | 70.4
CC(C)c1ccc(NC(=O)N[C@H]2CCN(CCCCCNC(=O)/C=C/c3ccc(Cl)c(Cl)c3)C2)cc1 | 710
CC(C)c1ccc(CN2CCC(NC(=O)c3ccc(-c4cccc(Cl)c4)s3)CC2)cc1 | 1430
Cc1cccc2nc(-c3ccc(-c4ccc(CN5CCN(c6ccc(C#N)cn6)CC5)cc4)s3)[nH]c12 | 1130

Compound | XC50 [nM]
Cn1nc(-c2ccc(S(=O)(=O)N3CCC(CN4CCC(c5c[nH]c6ccccc56)CC4)CC3)s2)cc1C(F)(F)F | 1090
CC(C)c1cn2c3c(cc(C(=O)N[C@@H](Cc4ccccc4)[C@H](O)CNC4CCOCC4)cc13)N(C)S(=O)(=O)CC2 | 54.5
CCC(=O)Nc1cc(=O)[nH]c2nc(-c3ccc(Cl)cc3)nn12 | 570
O=C(Nc1ccc(Oc2ccc(OC(F)(F)F)cc2)cc1)c1ccco1 | 1130
COc1cccc(C(=O)Nc2nc3c(s2)CCN(Cc2ccccc2N2CCNCC2)CC3)c1 | 888
O=C(Nc1ccc2nccc(N3CCN4CCC[C@H]4C3)c2c1)c1ccc(Cl)c(Cl)c1 | 340
COc1ccc(C(=O)N2CCC3(CC2)C(=O)N(CC(=O)NCC2CCCCC2)CN3c2ccccc2)cc1 | 273
CN1CCN(Cc2cccc(-c3ccc4c(Nc5cc(O)c(Cl)cc5F)ccnc4c3)c2)CC1 | 770
N#CC1(CCCNCCc2ccc(O)cc2)CCCc2c(O)cccc21 (centres undefined) | 763
CC(C)N1CCN(c2ccc(OCCCCN3CCN(c4cccc(Cl)c4Cl)CC3)cc2Cl)CC1 | 1040
NC1CCN(Cc2ccc(-c3ccc(-c4nc5cc(F)ccc5[nH]4)cc3)cc2)C1 (centres undefined) | 184
CCCC(CNCc1cccc(OCC)c1)CNc1cc(=O)c2ccccc2[nH]1 (centres undefined) | 855
O=C(/C=C/c1ccc(Cl)c(Cl)c1)NCCCCCN1CCC(NC(=O)Nc2cc(Cl)cc(Cl)c2)CC1 | 722
Nc1cccc(CNCc2cccc(-c3cccc(-c4nc5cc(C(F)(F)F)ccc5[nH]4)c3)c2)c1 | 510
CC(C)(C)CC(C)(C)c1ccc(O)c(C(=O)Nc2cccc([N+](=O)[O-])c2)c1 | 589
CCN(CC)CCNc1ccnc2[nH]c3ccc(Cl)cc3c12 | 245
COc1ccc(OC(C)CNC(=O)c2cc([N+](=O)[O-])ccc2-c2ccc(OC)cc2)cc1 (centres undefined) | 1150
O=C(NCCCCCN1CCC(c2c[nH]c3ccccc23)CC1)Nc1cccc(Cl)c1 | 1020
Cc1ccc(-c2ccc(Cl)cc2Oc2cnc(N)nc2N)o1 | 1080
CC(C)C[C@H](NC(=O)c1ccc(OCCN2CCOCC2)cc1)C(=O)N[C@H](/C=N/NC(=O)OC(C)(C)C)CCc1ccccc1 | 162
CCc1cc(OC)ccc1C1CCN(CCCCNC(=O)c2ccc(NC(=O)c3ccc(Cl)cc3)cc2)CC1 | 1070
Cc1ccc(OC2CCN(c3ccc(C(=O)NC4CC4)cn3)CC2)cc1 | 1300
CCOC(=O)c1[nH]c2cc(Cl)cc(Cl)c2c1/C=C/C(=O)Nc1ccc(-c2cnc(NC(C)=O)[nH]2)cc1 | 1020
CCCCc1ccc(C(=O)Nc2ccc3nc(N4CCN(C)CC4)cc(C)c3c2)cc1 | 1100
CCNc1cc(C(=O)N[C@@H](Cc2ccccc2)[C@H](O)CNCC(C)C)cc(N2CCCC2=O)c1 | 485

Compound | XC50 [nM]
CCc1c[nH]c2c(N3CCCCC3=O)cc(C(=O)N[C@@H](Cc3ccccc3)[C@H](O)CNCc3cccc(OC)c3)cc12 | 169
CC[C@@]1(O)C(=O)OCc2c1cc1n(c2=O)Cc2c-1nc1cc3c(cc1c2CN1CCOCC1)OCO3 | 965
Oc1c(C(Nc2ccccn2)c2ccco2)cc(Cl)c2cccnc12 (centres undefined) | 1010
COc1ccc(-n2nc(C(=O)NCCC3=CCCCC3)c3ccccc3c2=O)cc1 | 682
CN(C)CCC(O)C=C(c1ccc(Cl)cc1)c1ccc(Cl)cc1 (centres undefined) | 948
CCC[C@@H]([C@@H](CC1CCCCC1)C(=O)N[C@H](C(=O)Nc1nccs1)C(C)(C)SCCNC(=O)OCC)N(O)C=O | 83.4
Cc1cc(=NN=Cc2ccc(F)cc2)c2ccc(F)cc2[nH]1 | 950
Nc1nccc2ccc(OC3CCCCC3)cc12 | 602
CCN(CC)CCN(Cc1ccc(-c2ccc(C(F)(F)F)cc2)cc1)C(=O)Cn1nc(-c2ccc(C(F)(F)F)cc2)ccc1=O | 797
CCCc1cc(OC)c(CC2c3cccc(O)c3CCN2C)cc1OC (centres undefined) | 305
Cc1cc(N[C@@H](CC(C)C)C(=O)Nc2ccccc2)nc(NCCc2ccccc2)n1 | 888
CCCCc1ccc(-c2c(N)nc(N)nc2CC)cc1 | 954
CC(C)Sc1nc2c(c(=O)n1Cc1ccco1)C1(CCCC1)Cc1ccccc1-2 | 1630
Cc1ccc2nc(C)n(C3CCN(C(=O)Cc4ccccc4C)CC3)c2c1 | 243
Cc1ccc2nc(C)cc(NC(=O)Nc3ccc(N(C)C)cc3)c2c1 | 541
Cc1ccc2c(=NN=Cc3cccc(F)c3)cc(C)[nH]c2c1 | 857
COc1ccc(Nc2ncc(C#N)c(Nc3ccccc3C(N)=O)n2)cc1N1CCN(C)CC1 | 136
CN(CCN)Cc1ccc(-c2ccc(-c3nc4cc(C(F)(F)F)ccc4[nH]3)s2)cc1 | 607
COc1ccccc1C1CC(c2ccccc2)=NN1C(=O)c1ccco1 (centres undefined) | 397
O=C(Nc1ccc(OC2CCN(Cc3ccco3)C2)c(Cl)c1)c1ccc2ncccc2c1 (centres undefined) | 1080
CO/C(=C\C=C\c1cc2cc(Cl)c(Cl)cc2[nH]1)C(=O)NC1CCN(CCCc2ccccc2)CC1 | 767
CC[C@H]1CN2CC[C@H]1C[C@H]2[C@@H](O)c1cc(OCCCN(C)C)nc2ccc(OC)cc12 | 132
CC(CON1C(N)=NC(N)=NC1(C)C)c1ccc(Cl)cc1Cl (centres undefined) | 3.2
Cc1cccc(NC(=O)c2cnc(N3CCN(c4ccncc4)CC3)c(Cl)c2)c1 | 678
